Measurements reported in patent US9884868B2, “TGF-beta inhibitors” (Rigel Pharmaceuticals, Inc., priority 2015, dated 2018).

Target: HIS-TGF-βR1 T204D (Homo sapiens (Human), UniProt P36897, T204D)
Experiment: HTRF probe displacement assay with HIS-TGF-βR1 T204D
Conditions: not given

Chain of HIS-TGF-βR1 T204D (P36897 34-503 T204D): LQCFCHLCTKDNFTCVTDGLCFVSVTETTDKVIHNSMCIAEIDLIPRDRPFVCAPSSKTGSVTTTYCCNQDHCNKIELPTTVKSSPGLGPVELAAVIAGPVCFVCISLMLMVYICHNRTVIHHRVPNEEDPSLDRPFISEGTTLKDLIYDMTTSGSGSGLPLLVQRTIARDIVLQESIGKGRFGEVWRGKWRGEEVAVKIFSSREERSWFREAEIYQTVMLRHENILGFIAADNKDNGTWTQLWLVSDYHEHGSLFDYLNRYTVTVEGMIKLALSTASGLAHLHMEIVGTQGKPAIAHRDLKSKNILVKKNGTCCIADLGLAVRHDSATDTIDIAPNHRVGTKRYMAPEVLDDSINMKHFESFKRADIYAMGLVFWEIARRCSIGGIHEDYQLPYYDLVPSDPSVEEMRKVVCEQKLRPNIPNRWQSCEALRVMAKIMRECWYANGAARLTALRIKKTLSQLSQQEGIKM

IC50	SMILES
8.1 nM	N#Cc1cnc2ccc(-c3c(-c4ccc(F)cc4F)ncn3CC(F)F)cn12 [227′, 6-(1-(2,2-difluoroethyl)-4-(2,4-difluorophenyl)-1H-imidazol-5-yl)imidazo[1,2-a]pyridine-3-carbonitrile]

Same assay, conditions: read-out: TGFbr1 IC50; HTRF probe displacement, 1 nM HIS-TGF-βR1 T204D, 1 hour at room temperature

SMILES	IC50
Fc1ccc(-c2ncn([C@H]3CCC(F)(F)C3)c2-c2ccc3nccn3c2)cc1Cl [186′, (S)-6-(4-(3-chloro-4-fluorophenyl)-1-(3,3-difluorocyclopentyl)-1H-imidazol-5-yl)imidazo[1,2-a]pyridine]	228 nM
N#Cc1cnc2ccc(-c3c(-c4ccc(F)cc4)ncn3C3CNC3)nn12 [190C′, 6-(1-(azetidin-3-yl)-4-(4-fluorophenyl)-1H-imidazol-5-yl)imidazo[1,2-b]pyridazin-3-carbonitrile]	86.2 nM
NC(=O)c1cnc2ccc(-c3c(-c4ccc(F)cc4)ncn3C3CNC3)nn12 [195B′, 6-(1-(azetidin-3-yl)-4-(4-fluorophenyl)-1H-imidazol-5-yl)imidazo[1,2-b]pyridazine-3-carboxamide]	45.4 nM
NCc1cnc2ccc(-c3c(-c4ccc(F)cc4)ncn3CC(F)F)nn12 [196A′, (6-(1-(2,2-difluoroethyl)-4-(4-fluorophenyl)-1H-imidazol-5-yl)imidazo[1,2-b]pyridazin-3-yl)methanamine]	20.1 nM
Fc1ccc(-c2ncn(CC(F)F)c2-c2ccc3nccn3c2)cc1Cl [219′, 6-(4-(3-chloro-4-fluorophenyl)-1-(2,2-difluoroethyl)-1H-imidazol-5-yl)imidazo[1,2-a]pyridine]	9.9 nM
Fc1ccc(-c2ncn(CC(F)F)c2-c2ccc3nccn3c2)cc1F [220′, 6-(1-(2,2-difluoroethyl)-4-(3,4-difluorophenyl)-1H-imidazol-5-yl)imidazo[1,2-a]pyridine]	41.4 nM
N#Cc1cnc2ccc(-c3c(-c4ccc(F)c(F)c4)ncn3CC(F)F)cn12 [226′, 6-(1-(2,2-difluoroethyl)-4-(3,4-difluorophenyl)-1H-imidazol-5-yl)imidazo[1,2-a]pyridine-3-carbonitrile]	73.2 nM
N#Cc1cnc2ccc(-c3c(-c4cc(Cl)c(F)cc4F)ncn3CC(F)F)cn12 [229′, 6-(4-(5-chloro-2,4-difluorophenyl)-1-(2,2-difluoroethyl)-1H-imidazol-5-yl)imidazo[1,2-a]pyridine-3-carbonitrile]	8.6 nM
N#Cc1cnc2ccc(-c3c(-c4cc(Cl)cc(Cl)c4)ncn3CC(F)F)nn12 [238′, 6-(4-(3,5-dichlorophenyl)-1-(2,2-difluoroethyl)-1H-imidazol-5-yl)imidazo[1,2-b]pyridazine-3-carbonitrile]	39.7 nM
N#Cc1cnc2ccc(-c3c(-c4cccc(N)c4)ncn3CC(F)F)nn12 [240′, 6-(4-(3-aminophenyl)-1-(2,2-difluoroethyl)-1H-imidazol-5-yl)imidazo[1,2-b]pyridazine-3-carbonitrile]	14.3 nM
Cc1ccc(-c2ncn(CC(F)F)c2-c2ccc3ncc(C#N)n3n2)cc1 [241′, 6-(1-(2,2-difluoroethyl)-4-(p-tolyl)-1H-imidazol-5-yl)imidazo[1,2-b]pyridazine-3-carbonitrile]	173 nM
N#Cc1cnc2ccc(-c3c(-c4ccc5c(c4)OCO5)ncn3CC(F)F)nn12 [247′, 6-(4-(benzo[d][1,3]dioxol-5-yl)-1-(2,2-difluoroethyl)-1H-imidazol-5-yl)imidazo[1,2-b]pyridazine-3-carbonitrile]	14.3 nM
N#Cc1cnc2ccc(-c3c(-c4ccc(O)cc4)ncn3CC(F)F)nn12 [250′, 6-(1-(2,2-difluoroethyl)-4-(4-hydroxyphenyl)-1H-imidazol-5-yl)imidazo[1,2-b]pyridazine-3-carbonitrile]	136 nM
N#Cc1cnc2ccc(-c3c(-c4ccccc4C(N)=O)ncn3CC(F)F)nn12 [251′, 2-(5-(3-cyanoimidazo[1,2-b]pyridazin-6-yl)-1-(2,2-difluoroethyl)-1H-imidazol-4-yl)benzamide]	73.5 nM
N#Cc1cnc2ccc(-c3c(-c4cccc(C(N)=O)c4)ncn3CC(F)F)nn12 [255′, 3-(5-(3-cyanoimidazo[1,2-b]pyridazin-6-yl)-1-(2,2-difluoroethyl)-1H-imidazol-4-yl)benzamide]	867 nM
N#Cc1ccc(-c2ncn(CC(F)F)c2-c2ccc3ncc(C#N)n3n2)cc1 [258′, 6-(4-(4-cyanophenyl)-1-(2,2-difluoroethyl)-1H-imidazol-5-yl)imidazo[1,2-b]pyridazine-3-carbonitrile]	356 nM
N#Cc1cnc2ccc(-c3c(-c4ccc(N)cc4)ncn3CC(F)F)nn12 [264′, 6-(4-(4-aminophenyl)-1-(2,2-difluoroethyl)-1H-imidazol-5-yl)imidazo[1,2-b]pyridazine-3-carbonitrile]	516 nM
N#CCCn1cnc(-c2ccc(F)cc2)c1-c1ccc2ncc(C#N)n2n1 [268′, 6-(1-(2-cyanoethyl)-4-(4-fluorophenyl)-1H-imidazol-5-yl)imidazo[1,2-b]pyridazine-3-carbonitrile]	19 nM

Other lines, results leading:

IC50	SMILES
3.3 nM	FCCn1cnc(-c2ccc(F)c(Cl)c2)c1-c1ccc2nccn2c1 [187′, 6-(4-(3-chloro-4-fluorophenyl)-1-(2-fluoroethyl)-1H-imidazol-5-yl)imidazo[1,2-a]pyridine]
0.9 nM	CNC(=O)c1cnc2ccc(-c3c(-c4ccc(F)cc4)ncn3CC(F)F)nn12 [206′, 6-(1-(2,2-difluoroethyl)-4-(4-fluorophenyl)-1H-imidazol-5-yl)-N-methylimidazo[1,2-b]pyridazine-3-carboxamide]
0.7 nM	CONC(=O)c1cnc2ccc(-c3c(-c4ccc(F)cc4)ncn3CC(F)F)nn12 [209′, 6-(1-(2,2-difluoroethyl)-4-(4-fluorophenyl)-1H-imidazol-5-yl)-N-methoxyimidazo[1,2-b]pyridazine-3-carboxamide]
1.6 nM	C=Cc1cnc2ccc(-c3c(-c4ccc(F)cc4)ncn3CC(F)F)nn12 [213E′, 6-(1-(2,2-difluoroethyl)-4-(4-fluorophenyl)-1H-imidazol-5-yl)-3-vinylimidazo[1,2-b]pyridazine]
6.8 nM	Fc1ccc(-c2ncn(CC(F)F)c2-c2ccc3nccn3c2)c(F)c1 [221′, 6-(1-(2,2-difluoroethyl)-4-(2,4-difluorophenyl)-1H-imidazol-5-yl)imidazo[1,2-a]pyridine]
2.9 nM	Fc1ccc(Cl)cc1-c1ncn(CC(F)F)c1-c1ccc2nccn2c1 [222′, 6-(4-(5-chloro-2-fluorophenyl)-1-(2,2-difluoroethyl)-1H-imidazol-5-yl)imidazo[1,2-a]pyridine]
2.2 nM	Fc1cc(F)c(-c2ncn(CC(F)F)c2-c2ccc3nccn3c2)cc1Cl [223′, 6-(4-(5-chloro-2,4-difluorophenyl)-1-(2,2-difluoroethyl)-1H-imidazol-5-yl)imidazo[1,2-a]pyridine]
3.7 nM	N#Cc1cnc2ccc(-c3c(-c4cc(Cl)ccc4F)ncn3CC(F)F)cn12 [228′, 6-(4-(5-chloro-2-fluorophenyl)-1-(2,2-difluoroethyl)-1H-imidazol-5-yl)imidazo[1,2-a]pyridine-3-carbonitrile]
1.7 nM	NC(=O)c1cnc2ccc(-c3c(-c4ccc(F)cc4)ncn3CC(F)F)cn12 [230′, 6-(1-(2,2-difluoroethyl)-4-(4-fluorophenyl)-1H-imidazol-5-yl)imidazo[1,2-a]pyridine-3-carboxamide]
1.8 nM	NC(=O)c1cnc2ccc(-c3c(-c4ccc(F)c(F)c4)ncn3CC(F)F)cn12 [232′, 6-(1-(2,2-difluoroethyl)-4-(3,4-difluorophenyl)-1H-imidazol-5-yl)imidazo[1,2-a]pyridine-3-carboxamide]
1 nM	NC(=O)c1cnc2ccc(-c3c(-c4ccc(F)cc4F)ncn3CC(F)F)cn12 [233′, 6-(1-(2,2-difluoroethyl)-4-(2,4-difluorophenyl)-1H-imidazol-5-yl)imidazo[1,2-a]pyridine-3-carboxamide]
1.1 nM	NC(=O)c1cnc2ccc(-c3c(-c4cc(Cl)ccc4F)ncn3CC(F)F)cn12 [234′, 6-(4-(5-chloro-2-fluorophenyl)-1-(2,2-difluoroethyl)-1H-imidazol-5-yl)imidazo[1,2-a]pyridine-3-carboxamide]
2.9 nM	N#Cc1cnc2ccc(-c3c(-c4ccccc4)ncn3CC(F)F)nn12 [237′, 6-(1-(2,2-difluoroethyl)-4-phenyl-1H-imidazol-5-yl)imidazo[1,2-b]pyridazine-3-carbonitrile]
5 nM	COc1ccc(-c2ncn(CC(F)F)c2-c2ccc3ncc(C#N)n3n2)cc1 [242′, 6-(1-(2,2-difluoroethyl)-4-(4-methoxyphenyl)-1H-imidazol-5-yl)imidazo[1,2-b]pyridazine-3-carbonitrile]
0.7 nM	N#Cc1cnc2ccc(-c3c(-c4ccccc4O)ncn3CC(F)F)nn12 [248′, 6-(1-(2,2-difluoroethyl)-4-(2-hydroxyphenyl)-1H-imidazol-5-yl)imidazo[1,2-b]pyridazine-3-carbonitrile]
2.2 nM	N#Cc1cnc2ccc(-c3c(-c4cccc(O)c4)ncn3CC(F)F)nn12 [249′, 6-(1-(2,2-difluoroethyl)-4-(3-hydroxyphenyl)-1H-imidazol-5-yl)imidazo[1,2-b]pyridazine-3-carbonitrile]
7 nM	N#Cc1cnc2ccc(-c3c(-c4ccccc4CO)ncn3CC(F)F)nn12 [253′, 6-(1-(2,2-difluoroethyl)-4-(2-(hydroxymethyl)phenyl)-1H-imidazol-5-yl)imidazo[1,2-b]pyridazine-3-carbonitrile]
5 nM	N#Cc1cnc2ccc(-c3c(-c4cccc(CO)c4)ncn3CC(F)F)nn12 [256′, 6-(1-(2,2-difluoroethyl)-4-(3-(hydroxymethyl)phenyl)-1H-imidazol-5-yl)imidazo[1,2-b]pyridazine-3-carbonitrile]
5.2 nM	COc1cc(-c2ncn(CC(F)F)c2-c2ccc3ncc(C#N)n3n2)ccc1F [262′, 6-(1-(2,2-difluoroethyl)-4-(4-fluoro-3-methoxyphenyl)-1H-imidazol-5-yl)imidazo[1,2-b]pyridazine-3-carbonitrile]
7.9 nM	N#Cc1cc(-c2ncn(CC(F)F)c2-c2ccc3ncc(C#N)n3n2)ccc1F [266′, 6-(4-(3-cyano-4-fluorophenyl)-1-(2,2-difluoroethyl)-1H-imidazol-5-yl)imidazo[1,2-b]pyridazine-3-carbonitrile]
